US4309559A, “Sulphonamides useful as pesticides” (FBC Limited, priority 1977, dated 1982)

Tests used:
Assay type in all cases: in vivo
Barley [1] = test: Soil incorporation (I), barley; settings: 21 days, 0=no effect, 100=complete suppression
From the text: (§1) Each of the compounds listed below was formulated as: […]
(§2) (I) an attaclay/sand dust and incorporated in John Innes I potting compost at a rate equivalent to 6.5 and 3.25 parts per million weight/volume of active ingredient to soil and placed in anodised aluminium pans, 19 cm long×9.5 cm wide×5.0 cm high. This is approximately equivalent to a surface application of 2.8 and 1.4 kg active ingredient per hectare cultivated to a depth of 5 cm. Seeds of the species listed below were sown in the treated soil, one species per pan, watered and placed in a controlled environment room (22° C.; 65-85% relative humidity and 14 hours artificial illumination at 17,000 lux) for 21 days.
(§3) The plants were then visually assessed for any growth regulatory or herbicidal effects. All differences from an untreated control were scored on a scale from 0-100, where 0 signifies no effect and 100 signifies complete suppression.
(§4) The results are shown in the following table where I stands for soil incorporation and II for surface spray.

Barnyard Grass [2] = test: Surface spray (II), barnyard grass; settings: 21 days, 0=no effect, 100=complete suppression
From the text: as §1
(§5) (II) An aqueous suspension together with 1000 ppm of the wetting agent Lissapol NX. The surfaces of an additional set of pans with seeds already sown were then sprayed with 2.8 or 1.4 kg/ha in 450 liters/hectare, and the pans kept in the controlled environment room for 21 days.
as §3, §4

Barley [3] = test: Surface spray (II), barley; settings: 21 days, 0=no effect, 100=complete suppression
From the text: as §1, §5, §3, §4

Rice [4] = test: Soil incorporation (I), rice; settings: 21 days, 0=no effect, 100=complete suppression
From the text: as §1, §2, §3, §4

[5] = tested on: Wheat (Triticum aestivum); test: Post-emergence foliar spray of monocotyledons, wheat; settings: foliar spray 2.8 kg/ha, 14 days, 0=no effect, 100=complete kill
Protocol: (§6) Seeds of the monocotyledon species listed below were sown in anodised aluminium pans, 19 cm long×9.5 cm wide×5.0 cm deep, containing John Innes I potting compost. They were then watered and placed in a controlled environment room (22° C.; 65-85% relative humidity; 14 hours per day artificial illumination at 17,000 lux). 14 days after sowing, the seedlings were given a foliar spray of the compound of Example 44, formulated as an aqueous suspension together with 2000 ppm of the wetting agent Lissapol NX. The dosage rate was adjusted to be 2.8 kg active ingredient in 450 liters per hectare. After a further 14 days in the controlled environment room, the plants were visually assessed for any growth regulatory or herbicidal effect. All differences from an untreated control were scored on a scale from 0-100 where 0 signifies no effect and 100 signifies complete kill.
(§7) The compounds listed below were tested according to the procedure of Example 66 but including rice (Oryza sativa) as an additional test species.

Wheat [6] = test: Soil incorporation (I), wheat; settings: 21 days, 0=no effect, 100=complete suppression
From the text: as §1, §2, §3, §4

[7] = tested on: Barnyardgrass (Echinochloa crus-galli); test: Post-emergence foliar spray of monocotyledons, barnyardgrass; settings: foliar spray 2.8 kg/ha, 14 days, 0=no effect, 100=complete kill
Protocol: as §6, §7

Carrot [8] = test: Soil incorporation (I), carrot; settings: 21 days, 0=no effect, 100=complete suppression
From the text: as §1, §2, §3, §4

Tomato [9] = test: Soil incorporation (I), tomato; settings: 21 days, 0=no effect, 100=complete suppression
From the text: as §1, §2, §3, §4

Cotton [10] = test: Soil incorporation (I), cotton; settings: 21 days, 0=no effect, 100=complete suppression
From the text: as §1, §2, §3, §4

Barley (Hordeum vulgare) = test: Post-emergence foliar spray of monocotyledons, barley; settings: foliar spray 2.8 kg/ha, 14 days, 0=no effect, 100=complete kill
Protocol: as §6, §7

Barnyard Grass [11] = test: Soil incorporation (I), barnyard grass; settings: 21 days, 0=no effect, 100=complete suppression
From the text: as §1, §2, §3, §4

rice (Oryza sativa) = test: Post-emergence foliar spray of monocotyledons, rice; settings: foliar spray 2.8 kg/ha, 14 days, 0=no effect, 100=complete kill
Protocol: as §6, §7

Cotton [12] = test: Surface spray (II), cotton; settings: 21 days, 0=no effect, 100=complete suppression
From the text: as §1, §5, §3, §4

Tomato [13] = test: Surface spray (II), tomato; settings: 21 days, 0=no effect, 100=complete suppression
From the text: as §1, §5, §3, §4

Rice [14] = test: Surface spray (II), rice; settings: 21 days, 0=no effect, 100=complete suppression
From the text: as §1, §5, §3, §4

Wheat [15] = test: Surface spray (II), wheat; settings: 21 days, 0=no effect, 100=complete suppression
From the text: as §1, §5, §3, §4

Carrot [16] = test: Surface spray (II), carrot; settings: 21 days, 0=no effect, 100=complete suppression
From the text: as §1, §5, §3, §4

SMILES | growth regulatory or herbicidal effect score (Barley [1]; I soil incorporation 3.25 ppm) | growth regulatory or herbicidal effect score (Barley [1]; I soil incorporation 6.5 ppm) | growth regulatory or herbicidal effect score (Barnyard Grass [2]; row 3.25 ppm (1.4 kg/ha)) | growth regulatory or herbicidal effect score (Barnyard Grass [2]; row 6.5 ppm (2.8 kg/ha)) | growth regulatory or herbicidal effect score (Barley [3]; row 3.25 ppm (1.4 kg/ha)) | growth regulatory or herbicidal effect score (Barley [3]; row 6.5 ppm (2.8 kg/ha)) | growth regulatory or herbicidal effect score (Rice [4]; I soil incorporation 3.25 ppm) | growth regulatory or herbicidal effect score (Rice [4]; I soil incorporation 6.5 ppm) | growth regulatory or herbicidal effect score [5] | growth regulatory or herbicidal effect score (Wheat [6]; I soil incorporation 3.25 ppm) | growth regulatory or herbicidal effect score (Wheat [6]; I soil incorporation 6.5 ppm) | growth regulatory or herbicidal effect score [7] | growth regulatory or herbicidal effect score (Tomato [9]; I soil incorporation 3.25 ppm) | growth regulatory or herbicidal effect score (Tomato [9]; I soil incorporation 6.5 ppm) | growth regulatory or herbicidal effect score (Cotton [10]; I soil incorporation 3.25 ppm) | growth regulatory or herbicidal effect score (Cotton [10]; I soil incorporation 6.5 ppm) | growth regulatory or herbicidal effect score (Barley (Hordeum vulgare)) | growth regulatory or herbicidal effect score (Barnyard Grass [11]; I soil incorporation 3.25 ppm) | growth regulatory or herbicidal effect score (Barnyard Grass [11]; I soil incorporation 6.5 ppm) | growth regulatory or herbicidal effect score (rice (Oryza sativa)) | also measured
CCS(=O)(=O)N(CC#N)c1ccc(Cl)c(Cl)c1 [Example 137] | 0 | 0 | 90 | 100 | 0 | 0 | 0 | 0 | 0 | 0 | 0 | 80 | 0 | 0 | 0 | 0 | 0 | 90 | 90 | 0 | growth regulatory or herbicidal effect score (Carrot [8]; I soil incorporation 3.25 ppm): 0; growth regulatory or herbicidal effect score (Carrot [8]; I soil incorporation 6.5 ppm): 0; growth regulatory or herbicidal effect score (Cotton [12]; row 3.25 ppm (1.4 kg/ha)): 0; growth regulatory or herbicidal effect score (Cotton [12]; row 6.5 ppm (2.8 kg/ha)): 0; growth regulatory or herbicidal effect score (Tomato [13]; row 3.25 ppm (1.4 kg/ha)): 0; growth regulatory or herbicidal effect score (Tomato [13]; row 6.5 ppm (2.8 kg/ha)): 0; growth regulatory or herbicidal effect score (Rice [14]; row 3.25 ppm (1.4 kg/ha)): 0; growth regulatory or herbicidal effect score (Rice [14]; row 6.5 ppm (2.8 kg/ha)): 0; growth regulatory or herbicidal effect score (Wheat [15]; row 3.25 ppm (1.4 kg/ha)): 0; growth regulatory or herbicidal effect score (Wheat [15]; row 6.5 ppm (2.8 kg/ha)): 0; growth regulatory or herbicidal effect score (Carrot [16]; row 3.25 ppm (1.4 kg/ha)): 0; growth regulatory or herbicidal effect score (Carrot [16]; row 6.5 ppm (2.8 kg/ha)): 0
Cc1ccc(N(CC(N)=S)S(C)(=O)=O)cc1Cl [Example 150] | 0 | 0 | 50 | 70 | 0 | 0 | 0 | 0 | 0 | 0 | 0 | 80 | 0 | 0 | 0 | 0 | 0 | 60 | 60 | 0 | growth regulatory or herbicidal effect score (Cotton [12]; row 3.25 ppm (1.4 kg/ha)): 0; growth regulatory or herbicidal effect score (Cotton [12]; row 6.5 ppm (2.8 kg/ha)): 0; growth regulatory or herbicidal effect score (Tomato [13]; row 3.25 ppm (1.4 kg/ha)): 0; growth regulatory or herbicidal effect score (Tomato [13]; row 6.5 ppm (2.8 kg/ha)): 0; growth regulatory or herbicidal effect score (Rice [14]; row 3.25 ppm (1.4 kg/ha)): 0; growth regulatory or herbicidal effect score (Rice [14]; row 6.5 ppm (2.8 kg/ha)): 0; growth regulatory or herbicidal effect score (Wheat [15]; row 3.25 ppm (1.4 kg/ha)): 0; growth regulatory or herbicidal effect score (Wheat [15]; row 6.5 ppm (2.8 kg/ha)): 0
